Assay: xn = mol fraction of the nth substance listed
Conditions: 101 kPa

CCCCOC(=O)c1ccccc1 + CCCCCCCCCC
Conditions | viscosity [mPa·s]
298.15 K, x2 = 0.0918 | 2.334
298.15 K, x2 = 0.1358 | 2.183
298.15 K, x2 = 0.1792 | 2.041
298.15 K, x2 = 0.2262 | 1.896
298.15 K, x2 = 0.2664 | 1.788
298.15 K, x2 = 0.3097 | 1.678
298.15 K, x2 = 0.3591 | 1.567
298.15 K, x2 = 0.4089 | 1.47
298.15 K, x2 = 0.4486 | 1.401
298.15 K, x2 = 0.4948 | 1.329
298.15 K, x2 = 0.5503 | 1.25
298.15 K, x2 = 0.5873 | 1.204
298.15 K, x2 = 0.6281 | 1.153
298.15 K, x2 = 0.6957 | 1.077
298.15 K, x2 = 0.741 | 1.032
298.15 K, x2 = 0.7899 | 0.988
298.15 K, x2 = 0.8403 | 0.946
298.15 K, x2 = 0.8939 | 0.908
298.15 K, x2 = 0.9566 | 0.87
308.15 K, x2 = 0.0669 | 1.981
308.15 K, x2 = 0.1091 | 1.855
308.15 K, x2 = 0.1542 | 1.738
308.15 K, x2 = 0.1965 | 1.637
308.15 K, x2 = 0.245 | 1.534
308.15 K, x2 = 0.2934 | 1.443
308.15 K, x2 = 0.3293 | 1.381
308.15 K, x2 = 0.3765 | 1.306
308.15 K, x2 = 0.4326 | 1.224
308.15 K, x2 = 0.4647 | 1.182
308.15 K, x2 = 0.5148 | 1.12
308.15 K, x2 = 0.563 | 1.063
308.15 K, x2 = 0.6162 | 1.008
308.15 K, x2 = 0.6547 | 0.972
308.15 K, x2 = 0.7081 | 0.924
308.15 K, x2 = 0.7512 | 0.891
308.15 K, x2 = 0.8136 | 0.846
308.15 K, x2 = 0.8573 | 0.818
308.15 K, x2 = 0.9215 | 0.783
318.15 K, x2 = 0.0724 | 1.636
318.15 K, x2 = 0.0793 | 1.618
318.15 K, x2 = 0.1214 | 1.527
318.15 K, x2 = 0.1698 | 1.43
318.15 K, x2 = 0.2143 | 1.349
318.15 K, x2 = 0.2625 | 1.268
318.15 K, x2 = 0.3071 | 1.201
318.15 K, x2 = 0.3576 | 1.129
318.15 K, x2 = 0.4024 | 1.073
318.15 K, x2 = 0.4543 | 1.013
318.15 K, x2 = 0.4998 | 0.966
318.15 K, x2 = 0.551 | 0.917
318.15 K, x2 = 0.5985 | 0.876
318.15 K, x2 = 0.6498 | 0.834
318.15 K, x2 = 0.6927 | 0.804
318.15 K, x2 = 0.7509 | 0.764
318.15 K, x2 = 0.8026 | 0.733
318.15 K, x2 = 0.901 | 0.682
318.15 K, x2 = 0.9265 | 0.673
